Experiments:
[1] = system: Tyrosine-protein kinase ABL1 (Homo sapiens), P00519 [E255K]; conditions: Compound concentration 1000.0 nM
[2] = target: ALK tyrosine kinase receptor (Homo sapiens) (UniProt Q9UM73); conditions: Compound concentration 1000.0 nM
[3] = target: Mitogen-activated protein kinase kinase kinase 6 (Homo sapiens) (UniProt O95382); conditions: Compound concentration 1000.0 nM
[4] = target: Aurora kinase A (Homo sapiens) (UniProt O14965); conditions: Compound concentration 1000.0 nM
[5] = target: Bone morphogenetic protein receptor type-1B (Homo sapiens) (UniProt O00238); conditions: Compound concentration 1000.0 nM
[6] = target: Bone morphogenetic protein receptor type-2 (Homo sapiens) (UniProt Q13873); conditions: Compound concentration 1000.0 nM
[7] = target: Calcium/calmodulin-dependent protein kinase type 1B (Homo sapiens) (UniProt Q6P2M8); conditions: Compound concentration 1000.0 nM
[8] = target: Calcium/calmodulin-dependent protein kinase type II subunit gamma (Homo sapiens) (UniProt Q13555); conditions: Compound concentration 1000.0 nM
[9] = target: Calcium/calmodulin-dependent protein kinase kinase 2 (Homo sapiens) (UniProt Q96RR4); conditions: Compound concentration 1000.0 nM
[10] = target: Peripheral plasma membrane protein CASK (Homo sapiens) (UniProt O14936); conditions: Compound concentration 1000.0 nM
[11] = target: Cyclin-dependent kinase 2 (Homo sapiens) (UniProt P24941); conditions: Compound concentration 1000.0 nM
[12] = target: Serine/threonine-protein kinase Chk2 (Homo sapiens) (UniProt O96017); conditions: Compound concentration 1000.0 nM
[13] = target: Fibroblast growth factor receptor 1 (Homo sapiens) (UniProt P11362); conditions: Compound concentration 1000.0 nM
[14] = system: Receptor-type tyrosine-protein kinase FLT3 (Homo sapiens), P36888 [UNDEFINED MUTATION]; conditions: Compound concentration 1000.0 nM
[15] = target: Tyrosine-protein kinase Fyn (Homo sapiens) (UniProt P06241); conditions: Compound concentration 1000.0 nM
[16] = target: G protein-coupled receptor kinase 4 (Homo sapiens) (UniProt P32298); conditions: Compound concentration 1000.0 nM
[17] = target: Mitogen-activated protein kinase 9 (Homo sapiens) (UniProt P45984); conditions: Compound concentration 1000.0 nM
[18] = target: Mitogen-activated protein kinase 10 (Homo sapiens) (UniProt P53779); conditions: Compound concentration 1000.0 nM
[19] = system: Mast/stem cell growth factor receptor Kit (Homo sapiens), P10721 [D816V]; conditions: Compound concentration 1000.0 nM
[20] = target: Mitogen-activated protein kinase kinase kinase 3 (Homo sapiens) (UniProt Q99759); conditions: Compound concentration 1000.0 nM
[21] = target: Mitogen-activated protein kinase kinase kinase kinase 4 (Homo sapiens) (UniProt O95819); conditions: Compound concentration 1000.0 nM
[22] = target: MAP kinase-activated protein kinase 5 (Homo sapiens) (UniProt Q8IW41); conditions: Compound concentration 1000.0 nM
[23] = target: Serine/threonine-protein kinase 26 (Homo sapiens) (UniProt Q9P289); conditions: Compound concentration 1000.0 nM
[24] = target: Serine/threonine-protein kinase 38 (Homo sapiens) (UniProt Q15208); conditions: Compound concentration 1000.0 nM
[25] = target: Mitogen-activated protein kinase 11 (Homo sapiens) (UniProt Q15759); conditions: Compound concentration 1000.0 nM
[26] = target: Serine/threonine-protein kinase PAK 1 (Homo sapiens) (UniProt Q13153); conditions: Compound concentration 1000.0 nM
[27] = target: Phosphatidylinositol 4-phosphate 3-kinase C2 domain-containing subunit beta (Homo sapiens) (UniProt O00750); conditions: Compound concentration 1000.0 nM
[28] = target: 1-phosphatidylinositol 3-phosphate 5-kinase (Homo sapiens) (UniProt Q9Y2I7); conditions: Compound concentration 1000.0 nM
[29] = target: Serine/threonine-protein kinase pim-1 (Homo sapiens) (UniProt P11309); conditions: Compound concentration 1000.0 nM
[30] = target: Phosphatidylinositol 5-phosphate 4-kinase type-2 beta (Homo sapiens) (UniProt P78356); conditions: Compound concentration 1000.0 nM
[31] = target: Membrane-associated tyrosine- and threonine-specific cdc2-inhibitory kinase (Homo sapiens) (UniProt Q99640); conditions: Compound concentration 1000.0 nM
[32] = target: Serine/threonine-protein kinase PLK4 (Homo sapiens) (UniProt O00444); conditions: Compound concentration 1000.0 nM
[33] = target: Protein kinase C iota type (Homo sapiens) (UniProt P41743); conditions: Compound concentration 1000.0 nM
[34] = target: Receptor-interacting serine/threonine-protein kinase 2 (Homo sapiens) (UniProt O43353); conditions: Compound concentration 1000.0 nM
[35] = target: Ribosomal protein S6 kinase alpha-5 (Homo sapiens) (UniProt O75582); conditions: Compound concentration 1000.0 nM
[36] = target: Ribosomal protein S6 kinase alpha-1 (Homo sapiens) (UniProt Q15418); conditions: Compound concentration 1000.0 nM
[37] = target: Serine/threonine-protein kinase Sgk3 (Homo sapiens) (UniProt Q96BR1); conditions: Compound concentration 1000.0 nM
[38] = target: Tyrosine-protein kinase Tec (Homo sapiens) (UniProt P42680); conditions: Compound concentration 1000.0 nM
[39] = target: Tyrosine-protein kinase receptor Tie-1 (Homo sapiens) (UniProt P35590); conditions: Compound concentration 1000.0 nM
[40] = target: Serine/threonine-protein kinase tousled-like 1 (Homo sapiens) (UniProt Q9UKI8); conditions: Compound concentration 1000.0 nM
[41] = target: Serine/threonine-protein kinase tousled-like 2 (Homo sapiens) (UniProt Q86UE8); conditions: Compound concentration 1000.0 nM
[42] = target: Tyrosine-protein kinase TXK (Homo sapiens) (UniProt P42681); conditions: Compound concentration 1000.0 nM
[43] = target: 5-hydroxytryptamine receptor 5A (Homo sapiens) (UniProt P47898); conditions: Compound concentration 10.0 uM
[44] = target: Muscarinic acetylcholine receptor M5 (Homo sapiens) (UniProt P08912); conditions: Compound concentration 10.0 uM
Rattus norvegicus = species: Rattus norvegicus; conditions: Compound concentration 10.0 uM

Serine/threonine-protein kinase tousled-like 1 (Homo sapiens), sequence (Q9UKI8 whole entry): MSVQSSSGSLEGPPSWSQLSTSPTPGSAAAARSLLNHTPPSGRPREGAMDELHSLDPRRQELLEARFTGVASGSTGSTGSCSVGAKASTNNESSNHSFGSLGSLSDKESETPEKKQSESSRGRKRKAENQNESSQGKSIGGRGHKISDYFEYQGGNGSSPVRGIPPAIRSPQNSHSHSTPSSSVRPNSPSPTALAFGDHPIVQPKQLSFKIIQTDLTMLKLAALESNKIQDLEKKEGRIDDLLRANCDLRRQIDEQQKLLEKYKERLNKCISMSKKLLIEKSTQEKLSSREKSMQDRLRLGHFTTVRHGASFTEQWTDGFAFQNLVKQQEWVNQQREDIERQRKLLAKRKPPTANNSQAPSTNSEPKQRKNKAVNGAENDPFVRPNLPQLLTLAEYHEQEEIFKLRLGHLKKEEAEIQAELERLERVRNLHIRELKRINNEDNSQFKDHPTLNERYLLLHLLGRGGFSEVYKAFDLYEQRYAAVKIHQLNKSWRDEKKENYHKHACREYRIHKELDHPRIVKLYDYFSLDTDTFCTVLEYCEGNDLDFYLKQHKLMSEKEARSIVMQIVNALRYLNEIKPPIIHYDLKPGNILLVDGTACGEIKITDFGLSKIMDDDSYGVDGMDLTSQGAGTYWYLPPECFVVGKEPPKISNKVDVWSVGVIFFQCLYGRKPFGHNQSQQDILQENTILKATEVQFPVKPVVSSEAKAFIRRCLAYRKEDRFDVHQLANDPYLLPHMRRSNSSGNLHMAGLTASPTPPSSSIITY
Serine/threonine-protein kinase 38 (Homo sapiens), sequence (Q15208 2-465 limits assumed): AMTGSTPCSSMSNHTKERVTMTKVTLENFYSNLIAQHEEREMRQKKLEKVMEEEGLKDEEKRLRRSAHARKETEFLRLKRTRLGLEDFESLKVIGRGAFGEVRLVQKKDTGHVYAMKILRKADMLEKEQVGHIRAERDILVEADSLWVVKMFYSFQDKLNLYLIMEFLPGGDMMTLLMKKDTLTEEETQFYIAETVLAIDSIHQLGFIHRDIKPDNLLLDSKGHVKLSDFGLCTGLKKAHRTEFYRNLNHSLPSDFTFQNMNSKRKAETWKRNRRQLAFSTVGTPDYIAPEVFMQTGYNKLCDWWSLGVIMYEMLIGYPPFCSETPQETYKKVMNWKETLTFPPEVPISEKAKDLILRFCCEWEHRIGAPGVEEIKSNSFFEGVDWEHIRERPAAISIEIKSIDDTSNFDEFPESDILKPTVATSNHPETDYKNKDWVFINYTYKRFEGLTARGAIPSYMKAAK
Serine/threonine-protein kinase Chk2 (Homo sapiens), sequence (O96017 whole entry): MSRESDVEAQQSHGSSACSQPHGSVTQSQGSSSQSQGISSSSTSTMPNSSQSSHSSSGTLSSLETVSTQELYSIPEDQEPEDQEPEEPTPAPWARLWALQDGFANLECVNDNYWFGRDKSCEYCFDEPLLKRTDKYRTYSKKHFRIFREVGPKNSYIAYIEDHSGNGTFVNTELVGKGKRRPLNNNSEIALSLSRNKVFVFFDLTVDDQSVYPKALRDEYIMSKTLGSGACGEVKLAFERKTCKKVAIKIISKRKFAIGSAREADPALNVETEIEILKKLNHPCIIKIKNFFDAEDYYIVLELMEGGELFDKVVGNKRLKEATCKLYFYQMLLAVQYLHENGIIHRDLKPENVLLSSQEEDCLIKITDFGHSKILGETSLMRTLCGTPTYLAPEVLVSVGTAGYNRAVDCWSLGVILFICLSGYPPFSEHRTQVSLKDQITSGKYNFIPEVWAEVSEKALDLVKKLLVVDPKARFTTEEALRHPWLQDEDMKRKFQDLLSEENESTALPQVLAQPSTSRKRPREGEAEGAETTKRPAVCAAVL
Mitogen-activated protein kinase 10 (Homo sapiens), sequence (P53779 whole entry): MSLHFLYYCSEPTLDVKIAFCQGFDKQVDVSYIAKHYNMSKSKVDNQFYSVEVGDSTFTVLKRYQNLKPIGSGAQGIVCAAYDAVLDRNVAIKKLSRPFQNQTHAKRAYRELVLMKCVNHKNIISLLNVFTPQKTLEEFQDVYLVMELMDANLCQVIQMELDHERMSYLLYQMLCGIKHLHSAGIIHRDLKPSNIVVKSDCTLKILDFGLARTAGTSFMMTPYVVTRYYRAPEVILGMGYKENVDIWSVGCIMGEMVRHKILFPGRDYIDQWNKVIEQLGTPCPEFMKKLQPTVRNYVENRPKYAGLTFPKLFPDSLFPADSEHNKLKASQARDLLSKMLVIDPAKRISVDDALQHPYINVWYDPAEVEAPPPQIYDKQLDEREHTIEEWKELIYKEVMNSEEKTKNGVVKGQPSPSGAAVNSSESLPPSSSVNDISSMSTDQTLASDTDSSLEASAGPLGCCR
Tyrosine-protein kinase Tec (Homo sapiens), sequence (P42680 whole entry): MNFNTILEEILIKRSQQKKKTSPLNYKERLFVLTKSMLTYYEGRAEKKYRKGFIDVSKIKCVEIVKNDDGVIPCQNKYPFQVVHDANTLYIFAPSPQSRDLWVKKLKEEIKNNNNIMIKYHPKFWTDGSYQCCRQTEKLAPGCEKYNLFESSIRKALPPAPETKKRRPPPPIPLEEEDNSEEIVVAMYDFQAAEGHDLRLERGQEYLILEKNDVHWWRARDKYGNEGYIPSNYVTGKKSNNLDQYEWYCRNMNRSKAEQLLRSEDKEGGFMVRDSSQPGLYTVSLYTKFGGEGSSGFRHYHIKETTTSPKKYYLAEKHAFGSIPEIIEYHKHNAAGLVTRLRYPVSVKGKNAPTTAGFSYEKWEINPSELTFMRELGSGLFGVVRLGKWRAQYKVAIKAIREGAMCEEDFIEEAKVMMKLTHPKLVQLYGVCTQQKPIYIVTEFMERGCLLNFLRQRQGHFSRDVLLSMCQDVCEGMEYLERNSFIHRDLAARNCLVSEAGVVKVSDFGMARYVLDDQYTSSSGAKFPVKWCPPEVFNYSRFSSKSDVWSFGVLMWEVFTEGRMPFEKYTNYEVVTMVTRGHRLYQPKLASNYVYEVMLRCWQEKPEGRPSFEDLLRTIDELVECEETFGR
Receptor-interacting serine/threonine-protein kinase 2 (Homo sapiens), sequence (O43353 whole entry): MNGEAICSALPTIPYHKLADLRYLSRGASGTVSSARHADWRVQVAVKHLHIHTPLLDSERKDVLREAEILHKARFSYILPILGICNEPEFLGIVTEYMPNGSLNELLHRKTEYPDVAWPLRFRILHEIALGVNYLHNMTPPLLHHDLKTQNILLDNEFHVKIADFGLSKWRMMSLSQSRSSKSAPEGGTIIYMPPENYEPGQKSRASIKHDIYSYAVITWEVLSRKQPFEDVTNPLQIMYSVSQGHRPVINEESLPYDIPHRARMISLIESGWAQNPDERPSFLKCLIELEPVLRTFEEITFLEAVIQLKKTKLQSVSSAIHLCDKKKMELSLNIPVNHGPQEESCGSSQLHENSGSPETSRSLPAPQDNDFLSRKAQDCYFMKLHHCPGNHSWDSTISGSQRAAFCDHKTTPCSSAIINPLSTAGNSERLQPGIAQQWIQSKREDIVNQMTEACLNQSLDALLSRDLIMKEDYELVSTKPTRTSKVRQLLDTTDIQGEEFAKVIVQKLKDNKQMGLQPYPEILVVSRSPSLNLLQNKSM
Phosphatidylinositol 4-phosphate 3-kinase C2 domain-containing subunit beta (Homo sapiens), sequence (O00750 whole entry, the tested form may be a part): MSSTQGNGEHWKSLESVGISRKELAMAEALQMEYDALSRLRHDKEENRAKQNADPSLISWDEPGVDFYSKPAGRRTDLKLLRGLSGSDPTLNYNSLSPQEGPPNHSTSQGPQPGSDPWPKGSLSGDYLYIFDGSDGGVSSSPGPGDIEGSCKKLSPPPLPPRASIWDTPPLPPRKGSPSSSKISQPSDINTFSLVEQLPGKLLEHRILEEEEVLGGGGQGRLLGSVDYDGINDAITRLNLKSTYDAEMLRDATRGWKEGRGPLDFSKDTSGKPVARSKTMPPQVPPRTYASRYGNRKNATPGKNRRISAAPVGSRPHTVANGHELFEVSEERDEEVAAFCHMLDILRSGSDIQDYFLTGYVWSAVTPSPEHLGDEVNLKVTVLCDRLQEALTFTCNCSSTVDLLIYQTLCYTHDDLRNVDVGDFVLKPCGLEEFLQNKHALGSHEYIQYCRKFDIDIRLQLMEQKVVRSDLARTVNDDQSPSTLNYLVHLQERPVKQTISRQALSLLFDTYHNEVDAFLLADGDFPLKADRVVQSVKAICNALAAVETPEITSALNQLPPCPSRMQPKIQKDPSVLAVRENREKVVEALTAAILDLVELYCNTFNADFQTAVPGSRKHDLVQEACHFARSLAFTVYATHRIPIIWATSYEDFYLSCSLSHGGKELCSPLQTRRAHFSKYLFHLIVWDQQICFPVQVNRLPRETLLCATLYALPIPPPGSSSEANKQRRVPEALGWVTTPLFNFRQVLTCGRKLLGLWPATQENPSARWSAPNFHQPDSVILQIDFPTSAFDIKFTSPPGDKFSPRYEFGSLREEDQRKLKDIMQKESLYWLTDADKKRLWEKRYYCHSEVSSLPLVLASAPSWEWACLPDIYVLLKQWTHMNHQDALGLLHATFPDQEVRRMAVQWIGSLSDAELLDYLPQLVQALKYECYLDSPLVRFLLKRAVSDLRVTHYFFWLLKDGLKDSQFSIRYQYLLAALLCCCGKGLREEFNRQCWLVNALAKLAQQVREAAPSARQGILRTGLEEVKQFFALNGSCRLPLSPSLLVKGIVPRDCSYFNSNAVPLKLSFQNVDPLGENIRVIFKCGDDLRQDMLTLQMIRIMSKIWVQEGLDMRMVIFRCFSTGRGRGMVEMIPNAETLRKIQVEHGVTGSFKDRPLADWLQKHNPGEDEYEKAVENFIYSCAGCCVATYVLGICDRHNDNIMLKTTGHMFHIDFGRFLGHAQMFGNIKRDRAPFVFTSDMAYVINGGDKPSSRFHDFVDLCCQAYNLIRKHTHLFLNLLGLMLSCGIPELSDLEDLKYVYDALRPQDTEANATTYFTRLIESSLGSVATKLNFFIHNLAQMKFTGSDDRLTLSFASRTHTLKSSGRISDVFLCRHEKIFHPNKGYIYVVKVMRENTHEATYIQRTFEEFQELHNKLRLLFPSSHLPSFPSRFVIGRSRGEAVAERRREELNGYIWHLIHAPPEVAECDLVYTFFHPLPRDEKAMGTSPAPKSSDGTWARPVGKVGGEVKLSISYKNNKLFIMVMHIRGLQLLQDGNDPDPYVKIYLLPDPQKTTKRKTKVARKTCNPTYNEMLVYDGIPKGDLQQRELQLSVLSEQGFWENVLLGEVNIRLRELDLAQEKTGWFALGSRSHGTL

`Nc1cnc(N2CCc3cc(S(=O)(=O)Nc4c(F)cc(Cl)cc4F)cc(N4CCCC4=O)c32)nc1` was tested. Which residual activity [1] did it give?
Its residual activity is 85%.

What about the residual activity [2] of the same molecule?
Its residual activity is 100%.

And the residual activity [3]?
Its residual activity is 75%.

What about the residual activity [4] of the same molecule?
Its residual activity is 100%.

And the residual activity [5]?
Its residual activity is 100%.

And the residual activity [6]?
Its residual activity is 100%.

And the residual activity [7]?
Its residual activity is 67%.

And the residual activity [8]?
The residual activity was 100%.

What about the residual activity [9] of the same molecule?
Its residual activity is 100%.

What about the residual activity [10] of the same molecule?
The residual activity was 94%.

And the residual activity [11]?
The residual activity was 100%.

And the residual activity [12]?
The residual activity was 92%.

And the residual activity [13]?
Its residual activity is 88%.

And the residual activity [14]?
Its residual activity is 96%.

What about the residual activity [15] of the same molecule?
Its residual activity is 58%.

What about the residual activity [16] of the same molecule?
Its residual activity is 100%.

And the residual activity [17]?
Its residual activity is 84%.

And the residual activity [18]?
The residual activity was 94%.

What about the residual activity [19] of the same molecule?
The residual activity was 100%.

What about the residual activity [20] of the same molecule?
The residual activity was 97%.

And the residual activity [21]?
Its residual activity is 61%.

And the residual activity [22]?
Its residual activity is 92%.

What about the residual activity [23] of the same molecule?
The residual activity was 83%.

And the residual activity [24]?
The residual activity was 99%.

What about the residual activity [25] of the same molecule?
The residual activity was 100%.

And the residual activity [26]?
The residual activity was 89%.

And the residual activity [27]?
The residual activity was 83%.

What about the residual activity [28] of the same molecule?
The residual activity was 100%.

What about the residual activity [29] of the same molecule?
The residual activity was 88%.

And the residual activity [30]?
Its residual activity is 100%.

And the residual activity [31]?
The residual activity was 99%.

And the residual activity [32]?
The residual activity was 100%.

And the residual activity [33]?
The residual activity was 100%.

What about the residual activity [34] of the same molecule?
The residual activity was 53%.

What about the residual activity [35] of the same molecule?
The residual activity was 100%.

And the residual activity [36]?
The residual activity was 93%.

And the residual activity [37]?
Its residual activity is 100%.

What about the residual activity [38] of the same molecule?
The residual activity was 99%.

And the residual activity [39]?
Its residual activity is 100%.

And the residual activity [40]?
Its residual activity is 100%.

And the residual activity [41]?
Its residual activity is 79%.

And the residual activity [42]?
Its residual activity is 83%.

And the inhibition [43]?
Its inhibition is -4.87%.

And the inhibition [44]?
Its inhibition is 1.45%.

And the inhibition (Rattus norvegicus)?
The inhibition was -2.65%.

With `Cn1nc(C(F)(F)F)cc1-c1cnc(N2CCc3cc(S(=O)(=O)Nc4c(F)cc(Cl)cc4F)cc(N4CCCC4=O)c32)nc1` [TP-020] as the molecule, how does the residual activity [1] read?
Its residual activity is 89%.

And the residual activity [2]?
The residual activity was 80%.

And the residual activity [3]?
Its residual activity is 67%.

And the residual activity [4]?
Its residual activity is 88%.

And the residual activity [5]?
The residual activity was 83%.

And the residual activity [6]?
The residual activity was 77%.

What about the residual activity [7] of the same molecule?
Its residual activity is 80%.

What about the residual activity [8] of the same molecule?
Its residual activity is 95%.

What about the residual activity [9] of the same molecule?
Its residual activity is 93%.

What about the residual activity [10] of the same molecule?
Its residual activity is 77%.

And the residual activity [11]?
Its residual activity is 100%.

And the residual activity [12]?
The residual activity was 100%.

What about the residual activity [13] of the same molecule?
Its residual activity is 99%.

And the residual activity [14]?
Its residual activity is 32%.

And the residual activity [15]?
The residual activity was 94%.

And the residual activity [16]?
The residual activity was 100%.

And the residual activity [17]?
The residual activity was 95%.

And the residual activity [18]?
Its residual activity is 100%.

What about the residual activity [19] of the same molecule?
Its residual activity is 100%.

What about the residual activity [20] of the same molecule?
Its residual activity is 89%.

And the residual activity [21]?
The residual activity was 83%.

What about the residual activity [22] of the same molecule?
The residual activity was 95%.

And the residual activity [23]?
The residual activity was 73%.

And the residual activity [24]?
The residual activity was 97%.

What about the residual activity [25] of the same molecule?
Its residual activity is 100%.

What about the residual activity [26] of the same molecule?
The residual activity was 100%.

What about the residual activity [27] of the same molecule?
Its residual activity is 99%.

What about the residual activity [28] of the same molecule?
Its residual activity is 88%.

What about the residual activity [29] of the same molecule?
Its residual activity is 97%.

What about the residual activity [30] of the same molecule?
The residual activity was 100%.

What about the residual activity [31] of the same molecule?
Its residual activity is 93%.

And the residual activity [32]?
Its residual activity is 77%.

And the residual activity [33]?
The residual activity was 94%.

And the residual activity [34]?
The residual activity was 82%.

What about the residual activity [35] of the same molecule?
The residual activity was 97%.

And the residual activity [36]?
Its residual activity is 99%.

What about the residual activity [37] of the same molecule?
Its residual activity is 78%.

What about the residual activity [38] of the same molecule?
Its residual activity is 79%.

What about the residual activity [39] of the same molecule?
Its residual activity is 100%.

And the residual activity [40]?
The residual activity was 78%.

And the residual activity [41]?
The residual activity was 94%.

And the residual activity [42]?
Its residual activity is 100%.

What about the inhibition [43] of the same molecule?
Its inhibition is 7.89%.

And the inhibition [44]?
Its inhibition is 7.43%.

And the inhibition (Rattus norvegicus)?
Its inhibition is -9.93%.

Reference: ChEMBL document CHEMBL4507302, “Data for DCP probe TP-020” (2021)
